{"source": "ChEMBL document CHEMBL4665719", "about": "“Development of SKI-349, a dual-targeted inhibitor of sphingosine kinase and microtubule polymerization” (Bioorg Med Chem Lett, 2020)", "key": {"[1]": {"molecular_target": "T1, Sphingosine kinase 1/2 (Homo sapiens) (UniProt Q9NRA0+Q9NYA1)", "T1 sequence (Q9NRA0 whole entry, looked up)": "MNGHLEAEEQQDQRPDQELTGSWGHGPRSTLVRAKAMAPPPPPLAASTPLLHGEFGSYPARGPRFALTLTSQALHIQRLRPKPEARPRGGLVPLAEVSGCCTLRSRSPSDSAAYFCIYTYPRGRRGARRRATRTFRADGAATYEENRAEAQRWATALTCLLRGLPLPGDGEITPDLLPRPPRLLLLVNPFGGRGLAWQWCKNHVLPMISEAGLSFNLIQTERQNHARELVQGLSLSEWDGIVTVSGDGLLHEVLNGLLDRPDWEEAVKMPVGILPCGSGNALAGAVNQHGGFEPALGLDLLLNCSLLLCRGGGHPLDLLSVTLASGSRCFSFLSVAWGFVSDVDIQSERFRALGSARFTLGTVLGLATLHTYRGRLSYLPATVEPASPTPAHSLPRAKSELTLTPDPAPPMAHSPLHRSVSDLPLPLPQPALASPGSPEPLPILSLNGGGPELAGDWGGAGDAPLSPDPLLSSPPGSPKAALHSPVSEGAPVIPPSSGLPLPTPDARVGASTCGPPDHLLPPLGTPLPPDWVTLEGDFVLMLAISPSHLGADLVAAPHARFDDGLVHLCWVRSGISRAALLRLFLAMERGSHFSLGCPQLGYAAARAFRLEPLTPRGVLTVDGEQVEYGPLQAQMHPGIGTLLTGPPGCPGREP", "T1 sequence (Q9NYA1 whole entry, looked up)": "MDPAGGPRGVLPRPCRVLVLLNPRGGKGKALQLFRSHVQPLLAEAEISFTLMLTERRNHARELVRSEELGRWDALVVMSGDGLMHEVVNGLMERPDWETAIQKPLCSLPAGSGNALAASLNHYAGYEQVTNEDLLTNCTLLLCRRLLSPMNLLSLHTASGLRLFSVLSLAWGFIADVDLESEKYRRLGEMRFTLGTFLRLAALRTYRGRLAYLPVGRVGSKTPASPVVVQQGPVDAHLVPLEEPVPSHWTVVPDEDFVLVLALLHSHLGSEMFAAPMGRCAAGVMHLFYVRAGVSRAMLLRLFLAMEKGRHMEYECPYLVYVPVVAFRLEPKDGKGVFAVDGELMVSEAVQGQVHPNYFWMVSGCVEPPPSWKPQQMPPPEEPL", "assay": "Inhibition of SPHK1/SPHK2 in human HL-60 cells assessed as induction of apoptosis by measuring spindle assembly checkpoint arrest at 20 nM after 16 hrs by Western blot analysis", "assay_type": "cell-based"}, "[2]": {"molecular_target": "T1, Sphingosine kinase 1/2 (Homo sapiens)", "assay": "Inhibition of SPHK1/SPHK2 in human HL-60 cells assessed as induction of apoptosis by measuring spindle assembly checkpoint arrest at 3 nM after 16 hrs by Western blot analysis", "assay_type": "cell-based"}, "[3]": {"molecular_target": "T1, Sphingosine kinase 1/2 (Homo sapiens)", "assay": "Inhibition of SPHK1/SPHK2 in human HL-60 cells assessed as C16:0 ceramide level assessed per 10^6 cells at 5 uM after 24 hrs by LC-ESI/MS analysis (reference value: 33.5 +/- 4.1 pmol)", "assay_type": "cell-based"}, "[4]": {"molecular_target": "T1, Sphingosine kinase 1/2 (Homo sapiens)", "assay": "Inhibition of SPHK1/SPHK2 in human HL-60 cells assessed as sphingosine-1-phosphate level assessed per 10^6 cells at 5 uM after 24 hrs by LC-ESI/MS analysis (reference value: 3.1 +/- 0.3 pmol)", "assay_type": "cell-based"}, "[5]": {"molecular_target": "T1, Sphingosine kinase 1/2 (Homo sapiens)", "assay": "Inhibition of SPHK1/SPHK2 in human HL-60 cells assessed as C18:0 ceramide level assessed per 10^6 cells at 5 uM after 24 hrs by LC-ESI/MS analysis (reference value: 1.6 +/- 0.2 pmol)", "assay_type": "cell-based"}, "[6]": {"molecular_target": "Cyclin-dependent kinase 1 (Homo sapiens) (UniProt P06493)", "sequence (P06493 whole entry, looked up)": "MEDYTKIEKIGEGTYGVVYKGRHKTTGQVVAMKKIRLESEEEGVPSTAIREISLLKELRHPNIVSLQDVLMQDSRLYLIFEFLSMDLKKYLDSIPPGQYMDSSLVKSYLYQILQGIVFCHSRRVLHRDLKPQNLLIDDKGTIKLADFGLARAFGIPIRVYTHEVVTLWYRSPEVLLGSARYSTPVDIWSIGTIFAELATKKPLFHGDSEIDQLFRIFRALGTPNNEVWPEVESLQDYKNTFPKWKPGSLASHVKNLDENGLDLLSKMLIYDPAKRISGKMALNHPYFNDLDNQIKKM", "assay": "Activation of CDK1 in human HL-60 cells assessed as activation of caspase 7 at 5 uM after 24 hrs in presence of Ro-3306 by Western blot analysis", "assay_type": "cell-based"}, "[7]": {"molecular_target": "Sphingosine kinase 1 (Homo sapiens, UniProt Q9NYA1)", "sequence (Q9NYA1 whole entry)": "as the sequence (Q9NYA1 whole entry, looked up) above", "assay": "Inhibition of recombinant His6x-tagged human SphK1 expressed in HEK293 cells assessed as reduction in S1P formation using D-erythro-sphingosine as substrate by […]"}, "[8]": {"molecular_target": "Cyclin-dependent kinase 1 (Homo sapiens) (UniProt P06493)", "assay": "Activation of CDK1 in human HL60/VCR cells assessed as activation of caspase 7 at 5 uM after 24 hrs in presence of Ro-3306 by Western blot analysis", "assay_type": "cell-based"}, "[9]": {"system": "HL-60", "assay": "Cytotoxicity against human HL-60 cells assessed as reduction in cell viability after 48 hrs by MTT assay", "assay_type": "functional, cell-based", "conditions": "HL-60, 48 h"}, "[10]": {"molecular_target": "T1, Sphingosine kinase 1/2 (Homo sapiens)", "assay": "Inhibition of SPHK1/SPHK2 in human HL-60 cells assessed as sphingosine level assessed per 10^6 cells at 5 uM after 24 hrs by LC-ESI/MS analysis (reference value: 18.3 +/- 3.5 pmol)", "assay_type": "cell-based"}, "[11]": {"molecular_target": "Cyclin-dependent kinase 1 (Homo sapiens) (UniProt P06493)", "assay": "Activation of CDK1 in human HL-60 cells assessed as induction of Bcl2 phosphorylation at Ser70 residue at 5 uM after 24 hrs in presence of Ro-3306 by Western blot analysis", "assay_type": "cell-based"}, "[12]": {"molecular_target": "Cyclin-dependent kinase 1 (Homo sapiens) (UniProt P06493)", "assay": "Activation of CDK1 in human HL60/VCR cells assessed as induction of Bcl2 phosphorylation at Ser70 residue at 5 uM after 24 hrs in presence of Ro-3306 by Western blot analysis", "assay_type": "cell-based"}, "[13]": {"assay": "Cytotoxicity against human HL60/VCR cells assessed as reduction in cell viability after 48 hrs by MTT assay", "assay_type": "functional, cell-based"}, "[14]": {"molecular_target": "T2, Tubulin (Homo sapiens) (UniProt P68371+Q9H4B7+P0DPH7+P68366+Q13509+Q71U36+P04350+Q3ZCM7+P07437+P68363+Q9BQE3+Q6PEY2+Q13885+Q9BVA1+Q9BUF5)", "assay": "Inhibition of tubulin polymerization in human MOLM-13 cells assessed as disruption of microtubule network at 100 nM after 18 hrs by FITC-staining based flow cytometry analysis", "assay_type": "cell-based"}, "[15]": {"molecular_target": "T2, Tubulin (Homo sapiens)", "assay": "Inhibition of tubulin polymerization in human MOLM-13 cells assessed as disruption of microtubule network at 200 nM after 18 hrs by FITC-staining based flow cytometry analysis", "assay_type": "cell-based"}}, "note": "Calls of active or inactive are those of the source. No cut-off for these calls is given here.", "data": [{"smiles": "CC[C@@H]1C(=O)N(C)c2cnc(Nc3ccc(C(=O)N[C@H]4CC[C@H](N5CCN(CC6CC6)CC5)CC4)cc3OC)nc2N1C(C)C", "values": [{"measurement": "Activity", "setting": "[1]", "value": "Active"}]}, {"smiles": "Cc1ccc(C(=O)N(CCCN)[C@@H](c2nc3cc(Cl)ccc3c(=O)n2Cc2ccccc2)C(C)C)cc1", "values": [{"measurement": "Activity", "setting": "[2]", "value": "Active"}]}, {"smiles": "COc1ccc(-c2cc(C(=O)N/N=C(\\C)c3ccc(OC)c(OC)c3)[nH]n2)cc1", "values": [{"measurement": "Activity", "setting": "[3]", "value": 84, "unit": "pmol"}, {"measurement": "Activity", "setting": "[4]", "value": 3.2, "unit": "pmol"}, {"measurement": "Activity", "setting": "[5]", "value": 4.8, "unit": "pmol"}, {"measurement": "Activity", "setting": "[6]", "value": "inactive"}, {"measurement": "IC50", "setting": "[7]", "value": 3000, "unit": "nM"}, {"measurement": "Activity", "setting": "[8]", "value": "inactive"}, {"measurement": "IC50", "setting": "[9]", "value": 470, "unit": "nM"}, {"measurement": "Activity", "setting": "[10]", "value": 28.7, "unit": "pmol"}, {"measurement": "Activity", "setting": "[11]", "value": "inactive"}, {"measurement": "Activity", "setting": "[12]", "value": "inactive"}, {"measurement": "IC50", "setting": "[13]", "value": 1100, "unit": "nM"}]}, {"smiles": "CC(=O)O[C@H]1C(=O)[C@@]2(C)[C@H]([C@H](OC(=O)c3ccccc3)[C@]3(O)C[C@H](OC(=O)[C@H](O)[C@@H](NC(=O)c4ccccc4)c4ccccc4)C(C)=C1C3(C)C)[C@]1(OC(C)=O)CO[C@@H]1C[C@@H]2O", "values": [{"measurement": "inhibition", "setting": "[14]", "value": "Active"}]}, {"smiles": "CC[C@]1(O)C[C@H]2CN(CCc3c([nH]c4ccccc34)[C@@](C(=O)OC)(c3cc4c(cc3OC)N(C=O)[C@H]3[C@@](O)(C(=O)OC)[C@H](OC(C)=O)[C@]5(CC)C=CCN6CC[C@]43[C@@H]65)C2)C1", "values": [{"measurement": "inhibition", "setting": "[15]", "value": "Active"}]}]}
